Earlier results on one compound are cited in US20050142187A1, “Enhanced absorption of modified release dosage forms” (priority 2003, published 2005).

Turning to `CC1(C)S[C@@H]2[C@H](NC(=O)[C@H](N)c3ccc(O)cc3)C(=O)N2[C@H]1C(=O)O` [Amoxicillin, amoxicillin], the Food effect result (current scientific literature) is reported as “either a negligible or a negative food effect”. In addition, the Window of absorption (known in the art, "or less") is 3 to 4 h.
